The values that follow come from patent US9359367B2, “Tetrahydroquinazolinone derivatives as PARP inhibitors” (Lupin Limited, priority 2012, dated 2016).

The target in the assay is T1, PARP1 (Homo sapiens, UniProt P09874).
T1 construct: purchased BPS Bioscience
T1 sequence (P09874 whole entry): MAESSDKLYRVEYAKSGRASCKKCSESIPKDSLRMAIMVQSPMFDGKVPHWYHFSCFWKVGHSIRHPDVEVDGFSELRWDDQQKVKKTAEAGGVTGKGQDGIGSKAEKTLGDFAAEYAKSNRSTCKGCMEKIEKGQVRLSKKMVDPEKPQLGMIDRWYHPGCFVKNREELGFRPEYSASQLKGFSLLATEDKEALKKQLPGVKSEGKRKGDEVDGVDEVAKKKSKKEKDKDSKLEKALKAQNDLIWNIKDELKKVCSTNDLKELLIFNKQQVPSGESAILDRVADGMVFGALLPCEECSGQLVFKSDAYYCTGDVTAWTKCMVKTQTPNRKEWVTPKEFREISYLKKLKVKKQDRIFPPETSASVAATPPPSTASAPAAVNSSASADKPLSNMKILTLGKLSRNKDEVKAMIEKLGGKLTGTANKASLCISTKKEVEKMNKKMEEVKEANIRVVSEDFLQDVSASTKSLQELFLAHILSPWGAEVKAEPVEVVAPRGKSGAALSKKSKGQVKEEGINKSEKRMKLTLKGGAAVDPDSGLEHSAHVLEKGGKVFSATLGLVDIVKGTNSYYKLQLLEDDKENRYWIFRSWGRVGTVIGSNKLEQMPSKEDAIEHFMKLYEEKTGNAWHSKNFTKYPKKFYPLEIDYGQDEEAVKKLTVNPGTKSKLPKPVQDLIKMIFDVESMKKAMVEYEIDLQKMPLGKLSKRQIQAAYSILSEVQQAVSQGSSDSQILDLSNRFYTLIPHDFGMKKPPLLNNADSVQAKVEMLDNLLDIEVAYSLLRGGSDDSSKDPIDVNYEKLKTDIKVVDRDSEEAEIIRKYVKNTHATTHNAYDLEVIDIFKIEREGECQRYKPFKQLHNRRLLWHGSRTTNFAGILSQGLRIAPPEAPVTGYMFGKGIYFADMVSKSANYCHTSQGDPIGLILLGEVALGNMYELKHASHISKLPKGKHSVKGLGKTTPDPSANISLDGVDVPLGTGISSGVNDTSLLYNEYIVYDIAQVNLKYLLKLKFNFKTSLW
The assay is described as follows: PARP1 Biochemical Assay (BPS Bioscience kit, chemiluminescence). As to conditions: histone-coated plate, biotinilated NAD+, 25° C. for 60 min, luminescence, read-out: PARP 1 inhibition IC50. The procedure:
The assay was performed using BPS Bioscience kit. The 96-well strip plate was coated with 50 μl of histone mixture and incubated at 4° C. overnight. Next day the wells were blocked by adding 100 μl of blocking buffer. The plate was washed and 25 μl of appropriate concentration of PARP1 (25-75 ng/well) was added in all the Test and Positive control wells. In Negative control wells enzyme was replaced with 25 μl of water. To it 5 μl each of 10×PARP assay buffer and activated DNA was added in all the wells (Test, Positive and Negative control wells). 10× concentration of test compounds were prepared and 5 μl test compounds were added respective wells. Reaction volume was made up to 45 μl by adding water to all the wells. Finally, 5 μl of 10×PARP assay mixture containing biotinilated NAD^+ was added in each well and the plate was incubated at ambient temperature (25° C.) for 60 min. After washing the plate 50 μl of Streptavidin-HRP was added in each well and incubated the plate at RT for 30 min. The plate was washed and the luminescence was read in PHERAStar plate reader after adding 100 μl of chemiluminescent substrate.
PARP inhibition was calculated using the following formula: % PARP inhibition=100−[(RLU test compound treated sample−RLU negative control)/(RLU Positive control−RLU negative control)×100]
IC50 values were calculated by plotting % inhibition against the respective concentrations of test compounds using GraphPad Prism 5.
One may read the IC50 as the point on the concentration scale where inhibition reaches its midpoint. Regarding `CC1CN(c2ccc(F)cc2)CC(C)N1CCCc1nc2c(c(=O)[nH]1)CC1(CC2)CC1` (stereo not drawn) [Compound 26, 2′-(3-(4-(4-fluorophenyl)-2,6-dimethylpiperazin-1-yl)propyl)-7′,8′-dihydro-3′H-spiro[cyclopropane-1,6′-quinazolin]-4′(5′H)-one], the IC50 lay within 5000 to 500000 nM.
With `CC1CN(c2ccc(F)cc2)CCN1CCCc1nc2c(c(=O)[nH]1)CC1(CC2)CC1` (stereo not drawn) [Compound 27, 2′-(3-(4-(4-fluorophenyl)-2-methylpiperazin-1-yl)propyl)-7′,8′-dihydro-3′H-spiro[cyclopropane-1,6′-quinazolin]-4′(5′H)-one] the figure was 1 to 500 nM.
The value for `O=c1[nH]c(CCCN2CCN(c3ccccc3F)CC2)nc2c1CC1(CC2)CC1` [Compound 28, 2′-(3-(4-(2-fluorophenyl)piperazin-1-yl)propyl)-7′,8′-dihydro-3′H-spiro[cyclopropane-1,6′-quinazolin]-4′(5′H)-one] was 1 to 500 nM.
With `O=c1[nH]c(CCCN2CCN(c3ccncc3)CC2)nc2c1CC1(CC2)CC1` [Compound 29, 2′-(3-(4-(pyridin-4-yl)piperazin-1-yl)propyl)-7′,8′-dihydro-3′H-spiro[cyclopropane-1,6′-quinazolin]-4′(5′H)-one], the IC50 was in the range of 1 to 500 nM.
With `CC(C)(CCc1nc2c(c(=O)[nH]1)CC1(CC2)CC1)N1CCN(c2ccc(F)cc2)CC1` [Compound 30, 2′-(3-(4-(4-fluorophenyl)piperazin-1-yl)-3-methylbutyl)-7′,8′-dihydro-3′H-spiro[cyclopropane-1,6′-quinazolin]-4′(5′H)-one] the figure was 1 to 500 nM; with `CC(C)(/C=C/c1nc2c(c(=O)[nH]1)CC1(CC2)CC1)N1CCN(c2ccc(F)cc2)CC1` [Compound 31, (E)-2′-(3-(4-(4-fluorophenyl)piperazin-1-yl)-3-methylbut-1-en-1-yl)-7′,8′-dihydro-3′H-spiro[cyclopropane-1,6′-quinazolin]-4′(5′H)-one], 5000 to 500000 nM.
`Cc1ccc(N2CCN(CCCc3nc4c(c(=O)[nH]3)CC3(CC4)CC3)CC2)cc1` [Compound 32, 2′-(3-(4-(p-tolyl)piperazin-1-yl)propyl)-7′,8′-dihydro-3′H-spiro[cyclopropane-1,6′-quinazolin]-4′(5′H)-one]: the IC50 lay in the range of 1 to 500 nM.
With `O=C1CN(c2ccc(F)cc2)CCN1CCCc1nc2c(c(=O)[nH]1)CC1(CC2)CC1` [Compound 33, 2′-(3-(4-(4-fluorophenyl)-2-oxopiperazin-1-yl)propyl)-7′,8′-dihydro-3′H-spiro[cyclopropane-1,6′-quinazolin]-4′(5′H)-one], the IC50 lay within 5000 to 500000 nM.
The value for `O=c1[nH]c(CCCN2CCN(c3ccc(Cl)cc3Cl)CC2)nc2c1CC1(CC2)CC1` [Compound 34, 2′-(3-(4-(2,4-dichlorophenyl)piperazin-1-yl)propyl)-7′,8′-dihydro-3′H-spiro[cyclopropane-1,6′-quinazolin]-4′(5′H)-one] was 1 to 500 nM.
Consider `O=c1[nH]c(CCCN2CCN(c3ccc(F)cc3)CC2)nc2c1C1CCC2C1` (stereo not drawn) [Compound 35, 2-(3-(4-(4-fluorophenyl)piperazin-1-yl)propyl)-5,6,7,8-tetrahydro-5,8-methanoquinazolin-4(3H)-one], for which the IC50 lay within 5000 to 500000 nM.
Regarding `O=c1[nH]c(CCCN2CCN(c3ccc(Cl)cc3)CC2)nc2c1C1CCC2C1` (stereo not drawn) [Compound 36, 2-(3-(4-(4-chlorophenyl)piperazin-1-yl)propyl)-5,6,7,8-tetrahydro-5,8-methanoquinazolin-4(3H)-one], the IC50 was 5000 to 500000 nM.
As for `O=c1[nH]c(C2=C[C@H](N3CCN(c4ccc(Cl)cc4)CC3)CC2)nc2c1CC1(CC2)CC1` [Compound 37, (R)-2′-(3-(4-(4-chlorophenyl)piperazin-1-yl)cyclopent-1-en-1-yl)-7′,8′-dihydro-3′H-spiro[cyclopropane-1,6′-quinazolin]-4′(5′H)-one], the IC50 fell in the range of 1 to 500 nM.
Regarding `O=c1[nH]c(C2=C[C@@H](N3CCN(c4ccc(Cl)cc4)CC3)CC2)nc2c1CC1(CC2)CC1` [Compound 38, (S)-2′-(3-(4-(4-chlorophenyl)piperazin-1-yl)cyclopent-1-en-1-yl)-7′,8′-dihydro-3′H-spiro[cyclopropane-1,6′-quinazolin]-4′(5′H)-one], the concentration for half-maximal inhibition (IC50) was in the range of 1 to 500 nM.
The value for `O=c1[nH]c(C2=CC(N3CCN(c4ccncc4)CC3)CC2)nc2c1CC1(CC2)CC1` (stereo not drawn) [Compound 39, 2′-(3-(4-(pyridin-4-yl)piperazin-1-yl)cyclopent-1-en-1-yl)-7′,8′-dihydro-3′H-spiro[cyclopropane-1,6′-quinazolin]-4′(5′H)-one] was 1 to 500 nM; that for `O=c1[nH]c(C2=C[C@@H](N3CCN(c4ccc(Cl)cc4)CC3)CC2)nc2c1CCCC21CC1` [Compound 40, (S)-2′-(3-(4-(4-chlorophenyl)piperazin-1-yl)cyclopent-1-en-1-yl)-6′,7′-dihydro-3′H-spiro[cyclopropane-1,8′-quinazolin]-4′(5′H)-one] was 1 to 500 nM; that for `O=c1[nH]c(C2=C[C@H](N3CCN(c4ccc(Cl)cc4)CC3)CC2)nc2c1CCCC21CC1` [Compound 41, (R)-2′-(3-(4-(4-chlorophenyl)piperazin-1-yl)cyclopent-1-en-1-yl)-6′,7′-dihydro-3′H-spiro[cyclopropane-1,8′-quinazolin]-4′(5′H)-one] was 5000 to 500000 nM.
The value for `O=c1[nH]c(C2=C[C@H](N3CCN(c4ccc(F)cc4)CC3)CC2)nc2c1CC1(CC2)CC1` [Compound 42, (R)-2′-(3-(4-(4-fluorophenyl)piperazin-1-yl)cyclopent-1-en-1-yl)-7′,8′-dihydro-3′H-spiro[cyclopropane-1,6′-quinazolin]-4′(5′H)-one] was 1 to 500 nM.
The value for `O=c1[nH]c(C2=C[C@@H](N3CCN(c4ccc(F)cc4)CC3)CC2)nc2c1CC1(CC2)CC1` [Compound 43, (S)-2′-(3-(4-(4-fluorophenyl)piperazin-1-yl)cyclopent-1-en-1-yl)-7′,8′-dihydro-3′H-spiro[cyclopropane-1,6′-quinazolin]-4′(5′H)-one] was 5000 to 500000 nM; that for `O=C(NC1CC1)c1ccc(N2CCN(C3C=C(c4nc5c(c(=O)[nH]4)CC4(CC5)CC4)CC3)CC2)cc1` (stereo not drawn) [Compound 44, N-cyclopropyl-4-(4-(3-(4′-oxo-4′,5′,7′,8′-tetrahydro-3′H-spiro[cyclopropane-1,6′-quinazolin]-2′-yl)cyclopent-2-en-1-yl)piperazin-1-yl)benzamide] was 1 to 500 nM.
Take `O=C1CN([C@H]2C=C(c3nc4c(c(=O)[nH]3)CC3(CC4)CC3)CC2)CCN1c1ccc(F)cc1` [Compound 45, (R)2′-(3-(4-(4-fluorophenyl)-3-oxopiperazin-1-yl)cyclopent-1-en-1-yl)-7′,8′-dihydro-3′H-spiro[cyclopropane-1,6′-quinazolin]-4′(5′H)-one]: the IC50 was in the range of 5000 to 500000 nM.
`O=c1[nH]c(C2=C[C@H](N3CC=C(c4ccc(Cl)cc4)CC3)CC2)nc2c1CC1(CC2)CC1` [Compound 46, (R)-2′-(3-(4-(4-chlorophenyl)-5,6-dihydropyridin-1(2H)-yl)cyclopent-1-en-1-yl)-7′,8′-dihydro-3′H-spiro[cyclopropane-1,6′-quinazolin]-4′(5′H)-one]: the 50% inhibitory concentration (IC50) was in the range of 1 to 500 nM.
For the compound `O=c1[nH]c(C2=C[C@@H](N3CC=C(c4ccc(Cl)cc4)CC3)CC2)nc2c1CC1(CC2)CC1` [Compound 47, (S)-2′-(3-(4-(4-chlorophenyl)-5,6-dihydropyridin-1(2H)-yl)cyclopent-1-en-1-yl)-7′,8′-dihydro-3′H-spiro[cyclopropane-1,6′-quinazolin]-4′(5′H)-one], the IC50 fell in the range of 1 to 500 nM.
On to `O=c1[nH]c(C2=C[C@H](N3CCN(c4ccc(F)cc4)CC3)CC2)nc2c1CCCC21CC1` [Compound 48, (R)-2′-(3-(4-(4-fluorophenyl)piperazin-1-yl)cyclopent-1-en-1-yl)-6′,7′-dihydro-3′H-spiro[cyclopropane-1,8′-quinazolin]-4′(5′H)-one], for which the IC50 fell in the range of 1 to 500 nM.
The value for `O=c1[nH]c(C2=C[C@@H](N3CCN(c4ccc(F)cc4)CC3)CC2)nc2c1CCCC21CC1` [Compound 49, (S)-2′-(3-(4-(4-fluorophenyl)piperazin-1-yl)cyclopent-1-en-1-yl)-6′,7′-dihydro-3′H-spiro[cyclopropane-1,8′-quinazolin]-4′(5′H)-one] was 1 to 500 nM; that for `O=c1[nH]c(C2=CC(N3CCN(c4ccc(Br)cc4)CC3)CC2)nc2c1CC1(CC2)CC1` (stereo not drawn) [Compound 50, 2′-(3-(4-(4-bromophenyl)piperazin-1-yl)cyclopent-1-en-1-yl)-7′,8′-dihydro-3′H-spiro[cyclopropane-1,6′-quinazolin]-4′(5′H)-one] was 1 to 500 nM.
`O=c1[nH]c(C2=C[C@@H](N3CC=C(c4ccc(F)cc4)CC3)CC2)nc2c1CC1(CC2)CC1` [Compound 51, (S)-2′-(3-(4-(4-fluorophenyl)-5,6-dihydropyridin-1(2H)-yl)cyclopent-1-en-1-yl)-7′,8′-dihydro-3′H-spiro[cyclopropane-1,6′-quinazolin]-4′(5′H)-one]: the IC50 was 1 to 500 nM.
As for `O=c1[nH]c(C2=C[C@H](N3CC=C(c4ccc(F)cc4)CC3)CC2)nc2c1CC1(CC2)CC1` [Compound 52, (R)-2′-(3-(4-(4-fluorophenyl)-5,6-dihydropyridin-1 (2H)-yl)cyclopent-1-en-1-yl)-7′,8′-dihydro-3′H-spiro[cyclopropane-1,6′-quinazolin]-4′(5′H)-one], the IC50 lay in the range of 1 to 500 nM.
